Test results from patent US20190201494A1, “COMPOSITIONS AND METHODS FOR TREATING NICOTINE WITHDRAWAL” (STC UNM, priority 2016, published 2019).
Entries after “also recorded” stand apart in the source; their conditions may differ.

Test system: overnight abstinent smokers
Test: Questionnaire on Smoking Urges Brief ratings, overnight abstinence with Trier Social Stress Test (Example 1, parallel study)
Type: in vivo, human
Procedure: Session 2 methodology and results are presented in this publication.
Subjects started their overnight abstinence at 8 PM the night before reporting to the University of New Mexico Clinical and Translational Science Center. At 8 AM the following day, abstinence from smoking was confirmed with a CO reading on a coVita piCO+ breathalyzer less than 50% of their baseline CO recorded at intake. […] Exposure to nicotine was analyzed by quantitative liquid chromatography-tandem mass spectrometry. Cutoff for nicotine was 2 ng/mL for nicotine.
Following negative urine drug and pregnancy tests, at 8:30 AM, subjects completed their morning assessment of smoking urges and mood. A salivary cortisol sample was also taken at this time. They were then provided breakfast (a slice of banana bread, one apple, and two cheese sticks), which they had to eat entirely. The rest of the morning, subjects watched and read emotionally neutral movies and literature. At 11:45 AM, a study nurse inserted the intravenous line, completed a point-of-care (POC) glucose check and nares assessment.
Intranasal spray administration of insulin or placebo occurred at 12:30 PM. The purpose of the spacing time between morning check-in and nasal spray administration was stabilization of postprandial insulin levels. In a randomized fashion, the study nurse administered one spray in each nostril every three minutes for the total of six sprays of either insulin or placebo. Instructions to perform the Trier Social Stress Test were given at 13:20, and speech delivery occurred 13:30. Briefly, the Trier Social Stress Test^13 is a standardized laboratory stressor consisting of a free speech and a mental arithmetic task in front of an audience. Participants were introduced to the task and instructed to prepare a 5-minute presentation in which they were to promote their candidacy for a job. The speech was delivered after a 10-minute preparation period. Thereafter, participants were introduced to the mental arithmetic task, also standing in front of the audience and a self-projecting television screen. Subjects were required to count backwards from 2023 in steps of 17 as fast and accurately as possible for five minutes; upon making a mistake, subjects were asked to stop and start again at 2023. At every post-stress timepoint (13:40, 13:50, 14:00, 14:10, and 14:40), study nurses checked POC glucose to ensure euglycemia. After the last time point at 14:40, subjects ate a snack, had their glucose level checked, received another nares exam, and were discharged from the clinic at 16:00.
Subjective measures included the Questionnaire on Smoking Urges (QSU) Brief Form and Positive and Negative Affect Schedule (PANAS). Urges to smoke were rated using the 10-item QSU Brief Form^14 that consists of 10-questions. The answers are scored from 1 (strongly disagree) to 7 (strongly agree). These questions are the basis for the two factor derived subscales. Factor 1 subscale reflects a strong desire and intention to smoke with smoking perceived as rewarding. Factor 2 subscale reflects an anticipation of relief from negative affect with an urgent desire to smoke. Study data analysis included evaluations of both factors. The PANAS (Watson et al., 1988. J Pers Soc Psychol 54(6):1063-1070) consists of 10 negative and 10 positive mood terms rated on five-point Likert-type response scales from 1 (very slightly or not at all) to 5 (extremely). Positive and negative scale scores each range between 10 and 50. The PANAS was chosen as a composite measure of self-reported positive and negative affect. Subjective measures were taken at 08:30, 12:20, 13:00, 13:40, 13:50, 14:00, 14:10 and 14:40.
Placebo contained normal saline (0.9% NaCl). The product was prepared in a biosafety cabinet 30 minutes before administration. Insulin or placebo was placed in a 10 mL amber glass bottle (Gerresheimer AG, Düsseldorf, Germany), which was capped with a 10 mg sterile nasal pump (Aero Pump GmbH, Hochheim, Germany). […]

Substance: intranasal insulin: bulk human Regular insulin (U100 Novolin R, Novo Nordisk US), 100 IU/ml, six nasal sprays delivering 60 IU
- Smoking urges / nicotine cravings (Questionnaire on Smoking Urges Brief) compared to placebo (60 IU intranasal, overnight abstinence, through Trier Social Stress Test, p≤0.05): decreased significantly; also recorded: significant reduction of nicotine cravings
- Smoking urges, treatment×time interaction, b (60 IU vs placebo, SE(b)=0.032, z=1.93, p≤0.05): 0.064
- Smoking urges, main effect of treatment, b (60 IU vs placebo, SE(b)=4.81, z=1.39, p=0.16, not significant): 6.66
- QSU-Brief Factor 2 (anticipation of relief from negative affect) compared to placebo (60 IU, overnight abstinence, interaction non-significant): no effect; also recorded: not Factor 2 scale
- QSU-Brief Factor 1 (strong desire and intention to smoke) compared to placebo (60 IU, overnight abstinence, p≤0.05): overall decrease in smoking urges was driven by intranasal insulin's effect on Factor 1
- QSU-Brief Factor 1 (strong desire and intention to smoke) compared to placebo (60 IU, overnight abstinence, p≤0.05, listed as Intranasal insulin): significantly decreased
- Duration of effect on QSU-Brief Factor 1 (60 IU, detected immediately following treatment administration): ≥ 100 min
- QSU-Brief Factor 2, treatment×time interaction, b (SE(b)=0.01, z=1.48, p=0.14): 0.02
- QSU-Brief Factor 1, treatment×time interaction, b (SE(b)=0.018, z=2.15, p≤0.05): 0.039
- QSU-Brief Factor 2, main effect of treatment, b (SE(b)=2.37, z=1.58, p=0.11): 3.76
- QSU-Brief Factor 1, main effect of treatment, b (SE(b)=2.61, z=1.36, p=0.17): 3.55
